Our source for the TGI values is PubChem BioAssay (NCI).

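A five-concentration, 48-hour dose response in 96-well plates underlies each endpoint, interpolated linearly between surrounding concentrations. TGI marks complete inhibition of growth.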

Common to all, as to assay: NCI anticancer screen, dose series, 48 h
Assay [1] concerns MOLT-4 leukemia.
The test system of assay [2] is DMS 273 small cell lung.
Assay [3] deals with SNB-19 CNS.
The test system of assay [4] is U251 CNS.
Assay [5] relates to SK-MEL-2 melanoma.
Assay [6] has as its system NCI-H23 lung.
Assay [7] deals with EKVX NSCLC.
Assay [8] concerns 786-0 renal.
In assay [9] the test system is HCT-116 colon.
The subject of assay [10] is IGROV1 ovarian.
Assay [11] concerns LXFL 529 NSCLC.
Assay [12] concerns NCI-H460 lung.
The test system of assay [13] is A498 renal.
Assay [14] relates to DU-145 prostate.
The subject of assay [15] is BT-549 breast.

On to `COC(=O)C(=Cc1cc(OC)c(OC)c(OC)c1-c1cc2c(cc1C(C)=O)OCO2)C(=O)OC`, for which the TGI in [1] is greater than 211 µM; in assay [2], 69 µM; in assay [3], 69.6 µM; in assay [4], 66.4 µM; in assay [5], 61.7 µM; in [6], 75.9 µM. Besides, the TGI is greater than 211 µM in assay [7]; 61.6 µM in assay [8]; 62.5 µM in assay [9]; 134 µM in [10]; 65.9 µM in [11]; greater than 211 µM in assay [12].

Turning to `O=C(Nc1ccc(Cl)cc1Cl)C(=O)C(C(=O)c1ccncc1)C1OC(=O)c2ccccc21` (stereo not drawn), the TGI in assay [1], in assay [3], in assay [4], in assay [6], in [7] and in assay [13] was greater than 100 µM throughout. In addition, the TGI in [8], in assay [9], in assay [10], in assay [11] and in assay [12] was greater than 100 µM each time.

For the molecule `C=C1CCC23CC(CC[C@@H]2[C@@]12C[C@@H](c1ccoc1)OC2=O)OC3=O` (stereo partly drawn), the TGI in [1], in assay [2], in [3], in [4], in assay [5] and in assay [6] was greater than 100 µM in each case. Moreover, the TGI in assay [7], in assay [13], in [8], in [9], in assay [10] and in [11] was greater than 100 µM throughout. Further, the TGI in assay [12] was greater than 100 µM.

With `COc1cccc(/C=C2\C(=O)N(C(=O)c3ccc(NC(C)=O)cc3)N=C2C)c1`, the TGI in assay [1], in [2], in [3], in assay [4], in assay [5] and in assay [6] was greater than 100 µM in each case. Besides, the TGI in assay [7], in assay [8], in assay [9] and in assay [12] was greater than 100 µM throughout.

With `CCO/N=C(/N)c1ncn(Cc2ccccc2)c1NCC(OCC)OCC`, the TGI in assay [1], in assay [2], in [3], in assay [4], in [5] and in assay [7] was greater than 100 µM throughout. The TGI in assay [13], in [8], in [9], in assay [10], in assay [11] and in assay [12] was greater than 100 µM throughout.

`O=C1NC2OCC(O)C(O)C2O1` (stereo not drawn): the TGI in assay [1], in assay [2], in [3], in assay [4], in assay [5] and in assay [6] was greater than 100 µM each time. Moreover, the TGI in assay [7], in assay [13], in assay [8], in [9], in [10] and in assay [11] was greater than 100 µM throughout. The same molecule displayed a TGI in assay [12] greater than 100 µM.

In the case of `C/C(=C1/CCC/C(=C(/C)c2ccccc2)C1=O)c1ccccc1`, the TGI in assay [1] is 64.3 µM; in [2], greater than 100 µM; in [3], greater than 100 µM; in assay [4], 74.2 µM; in assay [5] it was 38.7 µM; in assay [6] it was greater than 100 µM. For the same molecule, the TGI is greater than 100 µM in assay [7]; greater than 100 µM in assay [8]; 55.5 µM in [9]; greater than 100 µM in [10]; greater than 100 µM in assay [11]; greater than 100 µM in assay [12].

On to `Cc1ccc(S(=O)(=O)OC(c2ccc(Cl)cc2Cl)C2OC(=O)c3ccccc32)cc1` (stereo not drawn), for which the TGI in [1], in assay [2], in assay [3], in assay [4], in assay [5] and in assay [6] was greater than 100 µM each time. Also, the TGI in assay [7], in assay [8], in assay [9], in assay [10], in assay [11] and in [12] was greater than 100 µM in each case.

With `CCOC(=O)C(Cc1cn(S(=O)(=O)c2ccccc2)c2ccccc12)(NC(C)=O)C(=O)OCC`, the TGI in [1] was 61.4 µM; in assay [2], greater than 100 µM; in assay [3], greater than 100 µM; in assay [4], greater than 100 µM; in assay [5], 80.3 µM; in assay [6], greater than 100 µM. Also, the TGI is greater than 100 µM in [8]; 95.8 µM in assay [9]; greater than 100 µM in [10]; 95.5 µM in assay [11]; greater than 100 µM in assay [12].

As to `Clc1ccc(-c2c(C3=NCCCN3)nnn2-c2ccc(Cl)cc2)cc1`, the TGI is 60.9 µM in assay [1]; greater than 100 µM in assay [2]; greater than 85.3 µM in assay [3]; greater than 75.8 µM in assay [4]; 34.6 µM in assay [5]; greater than 100 µM in assay [6]. Moreover, the TGI in assay [7] was greater than 100 µM; in assay [14] it was greater than 100 µM; in assay [15], greater than 100 µM; in assay [13] it was greater than 96.8 µM; in assay [8] it was greater than 77.1 µM; in assay [9], greater than 75.6 µM. The TGI in assay [10] was greater than 100 µM; in assay [11], greater than 83.3 µM; in assay [12], greater than 75.4 µM.

Consider `COc1ccc(CNc2nc3cc(C(F)(F)F)ccc3nc2C)cc1OC`, for which the TGI is 45.7 µM in assay [1]; 48.9 µM in [2]; greater than 100 µM in [3]; greater than 100 µM in assay [4]; 70.1 µM in assay [5]; greater than 100 µM in assay [6]. The TGI in [7] is 72.6 µM; in assay [13], 83.6 µM; in assay [8], 58.9 µM; in [9], greater than 100 µM; in [10] it was greater than 100 µM; in assay [11], greater than 100 µM. Also, in assay [12], the TGI was greater than 100 µM.

Consider `COc1ccc(-c2cc(=O)c3ccccc3[nH]2)c(OC)c1`, for which the TGI in assay [1], in assay [2], in assay [3], in assay [4], in assay [6] and in assay [7] was greater than 100 µM throughout. For the same molecule, the TGI in assay [8], in assay [9], in [10], in [11] and in [12] was greater than 100 µM in each case.

As to `CC(C)N1CN(C(C(=O)N[C@@H]2C(=O)N3C2SC(C)(C)C3C(=O)O)c2ccccc2)CSC1=S` (stereo partly drawn), the TGI in assay [1], in [2], in [3], in assay [4], in assay [5] and in assay [6] was greater than 100 µM throughout. Further, the TGI in [7], in [13], in assay [8], in assay [9], in assay [10] and in assay [11] was greater than 100 µM throughout. The molecule further yielded a TGI in assay [12] greater than 100 µM.
